Measurements from PubChem BioAssay (NCI).
“And” between values parts separate entries of the source, which are not always exact repeats. Identical values can stand only once.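 Cells were grown in 96-well plates and exposed to each compound for 48 hours at five concentrations; endpoints were interpolated linearly between bracketing concentrations, or set to the highest concentration if not reached. Here, GI50 denotes the concentration required for 50% inhibition of growth. TGI: concentration producing complete growth inhibition.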

Experiments:
Experiment in all cases: NCI tumour cell line growth inhibition, 48 h
UO-31 renal = tested on: UO-31 renal
K-562 leukemia = tested on: K-562 leukemia
NCI-H460 lung = tested on: NCI-H460 lung
HCT-15 colon = tested on: HCT-15 colon
SN12C renal = tested on: SN12C renal
UACC-62 melanoma = tested on: UACC-62 melanoma
OVCAR-3 ovarian = tested on: OVCAR-3 ovarian
EKVX NSCLC = tested on: EKVX NSCLC
NCI-H522 lung = tested on: NCI-H522 lung
MOLT-4 leukemia = tested on: MOLT-4 leukemia

SMILES	GI50 (UO-31 renal)	TGI (UO-31 renal)	GI50 (K-562 leukemia)	TGI (K-562 leukemia)	GI50 (NCI-H460 lung)	TGI (NCI-H460 lung)	GI50 (HCT-15 colon)	TGI (HCT-15 colon)	GI50 (SN12C renal)	TGI (SN12C renal)	GI50 (UACC-62 melanoma)	TGI (UACC-62 melanoma)	GI50 (OVCAR-3 ovarian)	TGI (OVCAR-3 ovarian)	GI50 (EKVX NSCLC)	TGI (EKVX NSCLC)	GI50 (NCI-H522 lung)	TGI (NCI-H522 lung)	GI50 (MOLT-4 leukemia)	TGI (MOLT-4 leukemia)
Clc1ccc(Cc2nc3cc4ccccc4cc3[nH]2)cc1	54.1 µM	> 100 µM	50.8 µM	> 100 µM	2.22 µM	> 100 µM	5.33 µM	26.4 µM	94.8 µM	> 100 µM	73.5 µM	> 100 µM	14.4 µM	> 100 µM	26.9 µM	> 100 µM	82 µM	> 100 µM		
NS(=O)(=O)c1ccc(-n2nc(-c3ccc(Br)cc3)ccc2=O)cc1	> 10 µM	> 10 µM	4.85 µM	> 10 µM	> 10 µM	> 10 µM	> 10 µM	> 10 µM	> 10 µM	> 10 µM	> 10 µM	> 10 µM	> 10 µM	> 10 µM			2.09 µM	> 10 µM	> 10 µM	> 10 µM
CN(C)S(=O)(=O)Nc1ccccn1		> 100 µM		> 100 µM		> 100 µM		> 100 µM		> 100 µM		> 100 µM		> 100 µM		> 100 µM		> 100 µM		
C[Si](C)(C)c1ccc(CC2(Cc3ccc([Si](C)(C)C)cc3)CCNC2)cc1		5.9 µM		84.6 µM		3.73 µM		4.86 µM		3.11 µM		3.96 µM		3.93 µM		18.9 µM		3.28 µM		
Clc1cccc(NC=Nc2ccc(-c3nc4ccccc4s3)cc2)c1	13.8 µM	33.6 µM	7.81 µM	18.2 µM	9.44 µM	23.3 µM	9.48 µM	20 µM	20.4 µM	> 50 µM	13 µM	38.1 µM	9.32 µM	22.7 µM	3.97 µM	29.9 µM	11.8 µM	22.3 µM		
COc1cc2c(cc1OC)C1C=NC(C(=O)O)(C2)c2ccccc21 (stereo not given)				> 100 µM		> 100 µM		> 100 µM		> 100 µM		> 100 µM		> 100 µM		> 100 µM		> 100 µM		> 100 µM
O=C1CCC(NC(=O)c2ccccc2)C(=O)N1 (stereo not given)		> 100 µM				> 100 µM		> 100 µM		> 100 µM		> 100 µM		> 100 µM		> 100 µM		> 100 µM		16.9 µM
O=C(O)CCCc1ccc(N(CCCl)CCCl)cc1	9.38 µM and 32 µM	34.7 µM and 272 µM and 56.2 µM	21.7 µM and 152 µM	88.5 µM and 462 µM and 625 µM	2.13 µM	44.5 µM and 228 µM	29.6 µM and 117 µM	> 76.3 µM and 307 µM and 239 µM				23.1 µM and 106 µM and 202 µM	18.1 µM and 133 µM	56.7 µM and 322 µM and 209 µM				13.1 µM and 100 µM and 99.4 µM	0.999 µM	12.7 µM and 104 µM
Cc1nc2nnc(C)n2c2c1C(=O)Nc1ccccc1N2		> 100 µM		> 100 µM		> 100 µM				> 100 µM		> 100 µM		> 100 µM		> 100 µM		> 100 µM		> 100 µM
O=S(=O)(O)C(O)/C=C/c1ccccc1 (stereo not given)		> 100 µM		> 100 µM				> 100 µM		> 100 µM		> 100 µM		> 100 µM		> 100 µM		> 100 µM		> 100 µM
Cc1cccc2c3ccc4c(c3n(C)c12)C(=O)C=CC4=O		> 100 µM		> 100 µM						> 100 µM		> 100 µM		> 100 µM		> 100 µM		> 100 µM		> 100 µM
O=C(O)/C=C/C(=O)Nc1ncn[nH]1		> 100 µM				> 100 µM		> 100 µM		> 100 µM		> 100 µM		> 100 µM		> 100 µM		> 100 µM		> 100 µM
CN1CCN(C(=S)N(C)C(=O)c2ccc(Cl)cc2)CC1		> 100 µM		> 100 µM		> 100 µM		> 100 µM		> 100 µM		> 100 µM		> 100 µM				> 100 µM		> 100 µM
C[C@]12CCC(=O)C=C1CC[C@@H]1C2CC[C@]2(C)NC(=O)C(C#N)CC12 (stereo not given in full)		> 100 µM		> 100 µM		> 100 µM		> 100 µM				> 100 µM		> 100 µM						> 100 µM
COc1ccc(CNC(=O)COc2ccc(/C=N/Nc3nc4ccccc4s3)cc2)cc1					2.65 µM	7.3 µM	3.44 µM	> 100 µM	2.84 µM	> 100 µM	2.32 µM	11.8 µM	2.1 µM	5.42 µM	2.98 µM	32.5 µM	2.44 µM	9.63 µM	> 100 µM	> 100 µM
COc1ccc(/C=C(/C(=O)O)c2cc(OC)c(OC)c(OC)c2)cc1		> 100 µM		> 100 µM		> 100 µM				> 100 µM		> 100 µM		64.1 µM		> 100 µM		36.6 µM		> 100 µM
CC1=CCCC(OC(N)=O)C1 (stereo not given)		> 100 µM		> 100 µM		> 100 µM		> 100 µM		> 100 µM		> 100 µM		> 100 µM		> 100 µM				> 100 µM
CCOC(=O)c1c(N)n(-c2ccccc2)c(=S)n(-c2ccccc2)c1=O		> 100 µM		> 100 µM		> 100 µM		> 100 µM		> 100 µM		> 100 µM		> 100 µM				> 100 µM		> 100 µM
C/C(=N\NC(N)=S)c1ccc(C)cc1C		> 100 µM		> 100 µM		> 100 µM		> 100 µM		> 100 µM		> 100 µM		> 100 µM		> 100 µM				> 100 µM
COc1ccc(CN2CCCC(C(=O)c3ccc(C(F)(F)F)cc3)C2)c(O)c1 (stereo not given)	14.4 µM	59.6 µM	19.3 µM	93.3 µM	26.7 µM	> 100 µM	14.6 µM	36 µM	24.4 µM	89.3 µM	12.4 µM	31.3 µM	36.2 µM	> 100 µM			19.3 µM	42.2 µM	27.5 µM	> 100 µM
